Experimental data as given in PMC4998035 (International Journal of Nanomedicine, 2016).
≈ marks a conversion by molar mass, not a printed value. Where two headings read alike, the source gives them in different places.

How the values were obtained:
[1] = in vitro; cited from earlier work
[2] = in vivo; cited from earlier work
[3] = Solubility of FK506 in NIC solution; format: physicochemical
[4] = In vitro percutaneous permeation, vertical Franz diffusion cell; format: in vitro ADME, Sprague Dawley rats; conditions: 20% NIC solution without FK506; data not shown

Row | Solubility in 30% (w/v) NIC solution relative to that in water ([3]; 30% (w/v) NIC vs water) [fold] | solubility at 3 days ([3]; water (0% (w/v) NIC), 37 °C, water, thermodynamic from solid) [µg/mL] | Structure (SMILES) | Immunosuppressant activity relative to cyclosporine A [1] | Immunosuppressant activity relative to cyclosporine A [2] | Permeation of NIC into skin [4]
1 | 532 | 0.69 ± 0.24 (≈ 0.858 µM) | C=CC[C@@H]1/C=C(\C)C[C@H](C)C[C@H](OC)[C@H]2O[C@@](O)(C(=O)C(=O)N3CCCC[C@H]3C(=O)O[C@H](/C(C)=C/[C@@H]3CC[C@@H](O)[C@H](OC)C3)[C@H](C)[C@@H](O)CC1=O)[C@H](C)C[C@@H]2OC [FK506, Tacrolimus] | 30–100 fold | 10–20 fold | –
2 | – | – | NC(=O)c1cccnc1 [NIC, nicotinamide] | – | – | easily permeate into skin
